Measured values published in patent publication US7279598B2, “Process for separating and recovering 3-hydroxypropionic acid and acrylic acid” (priority 2003, dated 2007).

Experiment: Extraction of acrylic acid and 3-hydroxypropionic acid from aqueous stock solutions by ethyl acetate (partition between ethyl acetate and aqueous phase)
Format: physicochemical
Settings: for Partition coefficient, D, average number of partition coefficients listed in Table 2: ethyl acetate / aqueous phase, average over the five stock solutions; for Partition Coefficient, D: ethyl acetate extractant phase / aqueous phase, 22° C.; for Separation Factor, S AA/3HP: partition coefficient of AA divided by that of 3HP
Method: The aqueous stock solutions comprise 30% 3-hydroxypropionic acid aqueous solution and 99% acrylic acid.
1. To a 15 ml centrifuge tube 5 ml of each acid stock solution and ethyl acetate extractant were added.
2. […] (rpm designates revolutions per minute).
4. The volumes of the aqueous and ethyl acetate extractant phases in the tubes were recorded.
The processing conditions and experimental results for the extraction of acrylic acid (AA) and 3-hydroxypropionic acid (3HP) by ethyl acetate are reported in the following Table 2.

[1] = Aqueous Stock Solution No. 1 (0.67 wt % AA, 1.34 wt % 3HP)
[2] = Aqueous Stock Solution No. 2 (3.33 wt % AA, 6.67 wt % 3HP)
[3] = Aqueous Stock Solution No. 3 (6.67 wt % AA, 13.34 wt % 3HP)
[4] = Aqueous Stock Solution No. 4 (9.99 wt % AA, 19.98 wt % 3HP)
[5] = Aqueous Stock Solution No. 5 (12.51 wt % AA, 25.05 wt % 3HP)

SMILES | Partition coefficient, D, average number of partition coefficients listed in Table 2 | Partition Coefficient, D [1] | Partition Coefficient, D [2] | Partition Coefficient, D [3] | Partition Coefficient, D [4] | Partition Coefficient, D [5] | Separation Factor, S AA/3HP (Aqueous Stock Solution No. 1) | Separation Factor, S AA/3HP (Aqueous Stock Solution No. 2) | Separation Factor, S AA/3HP (Aqueous Stock Solution No. 3) | Separation Factor, S AA/3HP (Aqueous Stock Solution No. 4) | Separation Factor, S AA/3HP (Aqueous Stock Solution No. 5)
O=C(O)CCO [3HP, 3-hydroxypropionic acid] | 0.274 | 0.18 | 0.21 | 0.27 | 0.30 | 0.41 | – | – | – | – | –
C=CC(=O)O [AA, acrylic acid] | 2.572 | 2.96 | 2.97 | 2.66 | 2.36 | 1.91 | 16.55 | 14.18 | 9.79 | 7.81 | 4.66
